Data taken from ChEMBL document CHEMBL1921706, “Discovery of a novel series of melanin-concentrating hormone receptor 1 antagonists for the treatment of obesity” (Bioorg Med Chem Lett, 2011).
Activity calls are given as the source filed them. No cut-off for these calls is given here.

Assays:
[1] = target: T1, Melanin-concentrating hormone receptor 1 (Homo sapiens, UniProt Q99705); test: Antagonist activity at human MCHR1 expressed in Jurkat cells co-expressing apoaequorin assessed as inhibition of MCH-induced calcium mobilization by aequorin bioluminescence assay; format: functional, cell-based
[2] = target: T1, Melanin-concentrating hormone receptor 1; test: Displacement of [125I]-MCH from MCHR1 after 2 hrs by beta scintillation counting
[3] = Clearance in Beagle dog at 0.5 mg/kg, iv; format: ADME, organism-based, Canis lupus familiaris; parameters: dose 0.5 mg/kg, route intravenous; details: in vivo
[4] = Clearance in rhesus monkey hepatocytes assessed per 10^6 cells; format: ADME, cell-based, Macaca mulatta, Liver, Hepatocyte
[5] = Volume of distribution at steady state in Beagle dog at 0.5 mg/kg, iv; format: ADME, organism-based, Canis lupus familiaris; parameters: dose 0.5 mg/kg, route intravenous; details: in vivo, read-out: Vdss
[6] = Clearance in Beagle dog hepatocytes assessed per 10^6 cells; format: ADME, cell-based, Canis lupus familiaris, Liver, Hepatocyte
Cynomolgus monkey [7] = test: Antiobesity activity in cynomolgus monkey assessed as reduction of food intake at 10 mg/kg, po measured up to 8 days; format: functional, organism-based; parameters: dose 10 mg/kg; details: Macaca fascicularis
[8] = Mean residence time in rhesus monkey at 3 mg/kg, po; format: ADME, organism-based, Macaca mulatta; parameters: dose 3 mg/kg, route oral; details: in vivo
[9] = Volume of distribution at steady state in rhesus monkey at 0.5 mg/kg, iv; format: ADME, organism-based, Macaca mulatta; parameters: dose 0.5 mg/kg, route intravenous; details: in vivo, read-out: Vdss
Cynomolgus monkey [10] = test: Toxicity in cynomolgus monkey at 10 mg/kg, po; format: organism-based, Macaca fascicularis; parameters: dose 10 mg/kg, route oral; details: in vivo
[11] = AUC in rhesus monkey at 3 mg/kg, po; format: ADME, organism-based, Macaca mulatta; parameters: dose 3 mg/kg, route oral; details: plasma
[12] = Mean residence time in Beagle dog at 3 mg/kg, po; format: ADME, organism-based, Canis lupus familiaris; parameters: dose 3 mg/kg, route oral; details: in vivo
Rattus norvegicus [13] = test: Antiobesity activity in ICV cannulated rat model assessed as reduction in MCH-induced food intake at 1 mg/kg, po administered 3 hrs before MCH challenge measured after 4 hrs post MCH challenge; format: functional, organism-based; parameters: dose 1 mg/kg
Rattus norvegicus [14] = test: AUC in rat at 3 mg/kg, po; format: ADME, organism-based, Plasma; parameters: dose 3 mg/kg, route oral; details: in vivo
[15] = Clearance in rat hepatocytes assessed per 10^6 cells; format: ADME, cell-based, Liver, Hepatocyte
[16] = Volume of distribution at steady state in rat at 0.5 mg/kg, iv; format: ADME, organism-based; parameters: dose 0.5 mg/kg, route intravenous; details: in vivo, read-out: Vdss
Rattus norvegicus [17] = test: Antiobesity activity in ICV cannulated rat model assessed as reduction in MCH-induced food intake at 5 mg/kg, po administered 3 hrs before MCH challenge measured after 4 hrs post MCH challenge; format: functional, organism-based; parameters: dose 5 mg/kg
[18] = Oral bioavailability in rhesus monkey at 3 mg/kg; format: ADME, organism-based, Macaca mulatta; details: in vivo
[19] = target: Melanin-concentrating hormone receptor 1 (Rattus norvegicus, UniProt P97639); test: Antagonist activity at rat MCHR1 expressed in HEK293 cells by aequorin bioluminescence assay; format: functional, cell-based
Rattus norvegicus [20] = test: Clearance in rat at 0.5 mg/kg, iv; format: ADME, organism-based; parameters: dose 0.5 mg/kg, route intravenous; details: in vivo
[21] = Oral bioavailability in Beagle dog at 3 mg/kg; format: ADME, organism-based, Canis lupus familiaris; details: in vivo
[22] = target: Melanin-concentrating hormone receptor 2 (Homo sapiens) (UniProt Q969V1); test: Binding affinity to human MCHR2
Cynomolgus monkey [23] = test: Toxicity in cynomolgus monkey assessed as signs of sedation at 10 mg/kg, po; format: organism-based, Macaca fascicularis; parameters: dose 10 mg/kg, route oral; details: in vivo
[24] = Mean residence time in rat at 3 mg/kg, po; format: ADME, organism-based; parameters: dose 3 mg/kg, route oral; details: in vivo
[25] = Clearance in human hepatocytes assessed per 10^6 cells; format: ADME, cell-based, Liver, Hepatocyte
[26] = target: Melanin-concentrating hormone receptor 1 (Macaca fascicularis, UniProt B6F061); test: Antagonist activity at cynomolgus monkey MCHR1; format: functional
[27] = AUC in Beagle dog at 3 mg/kg, po; format: ADME, organism-based, Canis lupus familiaris; parameters: dose 3 mg/kg, route oral; details: plasma
Rattus norvegicus [28] = test: Toxicity in ICV cannulated rat model assessed as behavioural toxicity at 0.2 to 5 mg/kg, po administered 3 hrs before MCH challenge measured after 4 hrs post MCH challenge; format: organism-based; parameters: dose 0.2-5 mg/kg, route oral; details: in vivo
Rattus norvegicus [29] = test: Toxicity in ICV cannulated rat model at 0.2 to 5 mg/kg, po administered 3 hrs before MCH challenge measured after 4 hrs post MCH challenge; format: organism-based; parameters: dose 0.2-5 mg/kg, route oral; details: in vivo
Rattus norvegicus [30] = test: Antiobesity activity in ICV cannulated rat model assessed as reduction in MCH-induced food intake at 0.2 mg/kg, po administered 3 hrs before MCH challenge measured after 4 hrs post MCH challenge; format: functional; parameters: scale not given: the % may be the effect or the level left
[31] = Clearance in rhesus monkey at 0.5 mg/kg, iv; format: ADME, organism-based, Macaca mulatta; parameters: dose 0.5 mg/kg, route intravenous; details: in vivo
Rattus norvegicus [32] = test: Oral bioavailability in rat at 3 mg/kg; format: ADME, organism-based; details: in vivo

T1 sequence (Q99705 whole entry): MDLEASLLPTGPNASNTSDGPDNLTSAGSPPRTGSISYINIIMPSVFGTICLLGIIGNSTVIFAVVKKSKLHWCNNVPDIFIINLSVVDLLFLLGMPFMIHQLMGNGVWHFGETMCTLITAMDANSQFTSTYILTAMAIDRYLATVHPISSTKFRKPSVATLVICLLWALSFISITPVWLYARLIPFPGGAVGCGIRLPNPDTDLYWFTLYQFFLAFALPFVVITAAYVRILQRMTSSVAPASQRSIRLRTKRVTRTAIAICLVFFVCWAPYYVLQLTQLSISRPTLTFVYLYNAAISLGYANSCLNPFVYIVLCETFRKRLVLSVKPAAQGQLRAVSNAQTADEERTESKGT
Sequence of Melanin-concentrating hormone receptor 2 (Homo sapiens) (Q969V1 whole entry): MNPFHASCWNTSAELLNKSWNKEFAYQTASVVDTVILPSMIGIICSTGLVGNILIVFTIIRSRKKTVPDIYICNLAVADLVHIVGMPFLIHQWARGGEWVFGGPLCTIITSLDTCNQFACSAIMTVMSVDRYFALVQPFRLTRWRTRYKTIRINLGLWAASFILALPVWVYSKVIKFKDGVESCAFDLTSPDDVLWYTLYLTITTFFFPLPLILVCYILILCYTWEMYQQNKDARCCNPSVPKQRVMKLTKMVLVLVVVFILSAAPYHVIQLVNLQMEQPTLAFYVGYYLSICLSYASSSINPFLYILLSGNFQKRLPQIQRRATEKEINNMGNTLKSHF
Sequence of Melanin-concentrating hormone receptor 1 (Macaca fascicularis, UniProt B6F061) (B6F061 whole entry): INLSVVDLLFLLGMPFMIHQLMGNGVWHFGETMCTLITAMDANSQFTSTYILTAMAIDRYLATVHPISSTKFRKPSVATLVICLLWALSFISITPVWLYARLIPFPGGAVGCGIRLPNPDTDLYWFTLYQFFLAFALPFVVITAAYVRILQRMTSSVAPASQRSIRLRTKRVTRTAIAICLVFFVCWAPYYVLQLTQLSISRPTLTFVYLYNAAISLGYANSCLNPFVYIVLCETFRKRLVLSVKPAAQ
Sequence of Melanin-concentrating hormone receptor 1 (Rattus norvegicus, UniProt P97639) (P97639 whole entry): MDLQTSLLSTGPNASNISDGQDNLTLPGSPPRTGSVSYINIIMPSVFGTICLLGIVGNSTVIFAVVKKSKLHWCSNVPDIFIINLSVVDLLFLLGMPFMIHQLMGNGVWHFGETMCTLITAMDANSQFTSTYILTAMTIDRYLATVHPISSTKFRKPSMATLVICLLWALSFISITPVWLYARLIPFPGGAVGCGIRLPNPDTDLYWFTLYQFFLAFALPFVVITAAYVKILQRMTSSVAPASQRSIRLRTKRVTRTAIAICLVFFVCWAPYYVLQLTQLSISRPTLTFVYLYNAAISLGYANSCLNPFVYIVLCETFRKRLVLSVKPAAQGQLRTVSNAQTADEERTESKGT

In the case of C[C@H]1c2c([nH]c3ccc(C(F)(F)F)cc23)C[C@H]2CCN(CCC3CCOCC3)C[C@@H]21, the IC50 [1] is reported as 6 nM and the IC50 [2] is reported as 0.9 nM.

In the case of C[C@H]1c2c([nH]c3ccc(C(F)(F)F)cc23)C[C@H]2CCN(CCCC3CCOCC3)C[C@@H]21, the clearance [3] is reported as 100 mL/min/kg, the hepatocyte CLint [4] is reported as 4.9 µL/min/1e6 cells and the Vd [5] is reported as 27 L/kg. For the same compound, the hepatocyte CLint [6] was 8 µL/min/1e6 cells, the Activity (Cynomolgus monkey [7]) was “Active” and the MRT [8] was 10 h. For the same compound, the Vd [9] was 18 L/kg, the Activity (Cynomolgus monkey [10]) was “Non-toxic” and the AUC [11] was 907 ng·h/mL. The MRT [12] was 2.5 h, the Activity (Rattus norvegicus [13]) was “Active” and the AUC (Rattus norvegicus [14]) was 4078 ng·h/mL. For the same compound, the IC50 [1] was 6 nM, the hepatocyte CLint [15] was < 0.3 µL/min/1e6 cells and the Vd [16] was 16 L/kg. The Activity (Rattus norvegicus [17]) was “Active”, the bioavailability [18] was 70% and the IC50 [19] was 4 nM. The CL (Rattus norvegicus [20]) was 3.3 mL/min/kg, the bioavailability [21] was 33% and the Activity [22] was “inactive”. For the same compound, the Activity (Cynomolgus monkey [23]) was “Non-toxic”, the IC50 [2] was 0.5 nM and the MRT [24] was 28 h. The hepatocyte CLint [25] was < 0.3 µL/min/1e6 cells, the IC50 [26] was 4 nM and the AUC [27] was 268 ng·h/mL. For the same compound, the Activity (Rattus norvegicus [28]) was “Non-toxic”, the Activity (Rattus norvegicus [29]) was “Non-toxic” and the Activity (Rattus norvegicus [30]) was 50%. It also gave a clearance [31] of 65 mL/min/kg and an F (Rattus norvegicus [32]) of 81%.

In the case of C[C@H]1c2c([nH]c3ccc(C(F)(F)F)cc23)C[C@H]2CCN(CCN3CCCCC3)C[C@@H]21, the IC50 [1] is reported as 100 nM and the IC50 [2] is reported as 40 nM.

In the case of CC1c2c([nH]c3ccc(C(F)(F)F)cc23)CC2CCN(C)CC21 (racemic), the IC50 [1] is reported as 100 nM.

C[C@@H]1c2c([nH]c3ccc(C(F)(F)F)cc23)C[C@@H]2CCN(CCN3CCOCC3)C[C@H]21 showed an IC50 [1] of 1000 nM and an IC50 [2] of 750 nM.

Compound Cc1ccc2[nH]c3c(c2c1)C(C)C1CN(C)CCC1C3 (racemic) has an IC50 [1] of 200 nM.

C[C@H]1c2c([nH]c3ccc(C(F)(F)F)cc23)C[C@H]2CCN(CCCCC3CCOCC3)C[C@@H]21 showed an IC50 [1] of 50 nM and an IC50 [2] of 4.4 nM.

COc1ccc2[nH]c3c(c2c1)C(C)C1CN(C)CCC1C3 (racemic) gave an IC50 [1] of 400 nM.

With CC1c2c([nH]c3ccc(C(F)(F)F)cc23)CC2CCN(C(=O)c3ccccc3)CC21 (racemic) the IC50 [1] was > 20000 nM.

Work on CC1c2c([nH]c3ccc(C(F)(F)F)cc23)CC2CCN(CCN3CCOCC3)CC21 (racemic) yielded an IC50 [1] of 20 nM.

CC1c2c([nH]c3ccc(C(F)(F)F)cc23)CC2CCN(CC3CCCCO3)CC21 (racemic) gave an IC50 [1] of 180 nM.

Work on CC1c2c([nH]c3ccc(Cl)cc23)CC2CCN(C)CC21 (racemic) yielded an IC50 [1] of 100 nM.

Compound CC1c2c([nH]c3cc(C(F)(F)F)ccc23)CC2CCN(C)CC21 (racemic) has an IC50 [1] of 200 nM.

CC1c2c([nH]c3ccc(C(F)(F)F)cc23)CC2CCN(Cc3ccccc3)CC21 (racemic) showed an IC50 [1] of 580 nM.

Compound CC1c2c([nH]c3cc(Cl)c(Cl)cc23)CC2CCN(C)CC21 (racemic) has an IC50 [1] of 50 nM.

In the case of CC1c2c([nH]c3ccccc23)CC2CCN(C)CC21 (racemic), the IC50 [1] is reported as 1000 nM.

For CC1c2c([nH]c3c(Cl)cccc23)CC2CCN(C)CC21 (racemic), the IC50 [1] was 1000 nM.

In the case of C[C@H]1c2c([nH]c3ccc(C(F)(F)F)cc23)C[C@H]2CCN(CCN3CCOCC3=O)C[C@@H]21, the IC50 [1] is reported as 7 nM and the IC50 [2] is reported as 7 nM.

In the case of C[C@H]1c2c([nH]c3ccc(C(F)(F)F)cc23)C[C@H]2CCN(CCN3CCOCC3)C[C@@H]21, the IC50 [1] is reported as 20 nM and the IC50 [2] is reported as 3 nM.

CC1c2c([nH]c3cccc(Cl)c23)CC2CCN(C)CC21 (racemic) gave an IC50 [1] of 700 nM.

For CC1c2c([nH]c3ccc(C(F)(F)F)cc23)CC2CCN(C(=O)C3CCOC3)CC21 (racemic), the IC50 [1] was > 20000 nM.

With CC1c2c([nH]c3ccc(C(F)(F)F)cc23)CC2CCN(CCc3ccccc3)CC21 (racemic) the IC50 [1] was 180 nM.
